Test results reported in the supplement of paper PMC10307832.

Key:
Experiment in all cases: relative viability (nuclei count vs DMSO), 5 days (fraction); higher = more cells survive
[1] = compound: C[C@@H](Oc1cc(-c2cnn(C3CCNCC3)c2)cnc1N)c1c(Cl)ccc(F)c1Cl [Crizotinib] + N=C(N)NC(=N)NCCc1ccccc1 [Phenformin] (partner 250 µM)
Summary of the method: (§1)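 Cells from lung cancer lines were seeded into 1536-well plates and, one day later, dosed by pin tool. Treatments were either a single drug or a fixed dose of an anchor drug with five library-drug doses (not always all listed) in √10 steps. After 5 days, nuclei were stained in a one-step fixation (final 0.05% Triton X-100, 1% formaldehyde, 1 ug/ml Hoechst) and counted on 4× images, and relative viability is the treated-to-vehicle nuclei ratio, as the median of duplicate plates.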

[2] = compound: CC(C)C[C@H](NC(=O)[C@H](CCc1ccccc1)NC(=O)CN1CCOCC1)C(=O)N[C@@H](Cc1ccccc1)C(=O)N[C@@H](CC(C)C)C(=O)[C@@]1(C)CO1 [Carfilzomib] + CC(=O)Nc1cccc(-n2c(=O)n(C3CC3)c(=O)c3c(Nc4ccc(I)cc4F)n(C)c(=O)c(C)c32)c1 [Trametinib] (partner 0.02 µM)
Summary of the method: as §1

[3] = compound: O=C(c1cc(Cc2n[nH]c(=O)c3ccccc23)ccc1F)N1CCN(C(=O)C2CC2)CC1 [Olaparib] + CCNC(=O)c1noc(-c2cc(C(C)C)c(O)cc2O)c1-c1ccc(CN2CCOCC2)cc1 [Luminespib] (partner 0.01 µM)
Summary of the method: as §1

[4] = compound: O=C(c1cc(Cc2n[nH]c(=O)c3ccccc23)ccc1F)N1CCN(C(=O)C2CC2)CC1 [Olaparib] + NC(=O)Nc1cc(-c2cccc(F)c2)sc1C(=O)N[C@H]1CCCNC1 [AZD7762] (partner 0.2 µM)
Summary of the method: as §1

Cell Line | relative viability ([1]; first compound 0.01 µM) | relative viability ([1]; first compound 0.03162 µM) | relative viability ([1]; first compound 0.1 µM) | relative viability ([1]; first compound 0.3162 µM) | relative viability ([1]; first compound 1 µM) | relative viability ([2]; first compound 0.001 µM) | relative viability ([2]; first compound 0.003162 µM) | relative viability ([2]; first compound 0.01 µM) | relative viability ([2]; first compound 0.03162 µM) | relative viability ([2]; first compound 0.1 µM) | relative viability ([3]; first compound 0.08 µM) | relative viability ([3]; first compound 0.253 µM) | relative viability ([3]; first compound 2.53 µM) | relative viability ([3]; first compound 8 µM) | relative viability ([4]; first compound 0.08 µM) | relative viability ([4]; first compound 0.253 µM) | relative viability ([4]; first compound 2.53 µM) | relative viability ([4]; first compound 8 µM)
NCI-H1975 | 0.376 | 0.419 | 0.4 | 0.41 | 0.399 | 0.267 | 0.312 | 0.33 | 0.102 | 0.101 | 0.169 | 0.174 | 0.258 | 0.234 | 0.793 | 0.727 | 0.705 | 0.765
NCI-H1993 | 0.493 | 0.51 | 0.534 | 0.507 | 0.509 | 0.51 | 0.471 | 0.603 | 0.53 | 0.481 | 0.87 | 0.842 | 0.78 | 1.04 | 0.748 | 0.736 | 1.04 | 0.824
NCI-H2085 | 0.626 | 0.807 | 0.703 |  | 0.872 | 0.498 | 0.503 | 0.478 | 0.35 | 0.223 | 0.499 | 0.381 | 0.427 | 0.437 | 1.1 | 0.875 | 0.962 | 0.881
NCI-H2087 | 0.36 | 0.502 | 0.508 |  | 0.462 | 0.187 | 0.235 | 0.131 | 0.0842 | 0.0653 | 0.162 | 0.159 | 0.199 | 0.154 | 1.43 | 1.15 | 1.3 | 0.959
NCI-H2126 | 0.464 | 0.591 | 0.511 | 0.528 | 0.507 | 0.516 | 0.61 | 0.58 | 0.563 | 0.447 | 1.13 | 0.797 | 0.811 | 0.724 | 1.08 | 0.942 | 0.959 | 0.948
NCI-H2170 | 0.394 | 0.443 | 0.419 | 0.428 | 0.423 | 0.931 | 0.921 | 0.863 | 0.868 | 0.25 | 0.735 | 0.651 | 0.594 | 0.5 | 0.718 | 0.857 | 0.627 | 0.398
NCI-H2342 | 0.512 | 0.567 | 0.54 | 0.549 | 0.544 | 0.844 | 0.851 | 0.862 | 0.949 | 0.633 | 0.685 | 0.561 | 0.712 | 0.649 | 0.544 | 0.4 | 0.439 | 0.474
NCI-H2347 | 0.24 | 0.329 | 0.473 | 0.488 | 0.333 | 0.269 | 0.23 | 0.298 | 0.292 | 0.262 | 0.43 | 0.615 | 0.398 | 0.259 | 0.905 | 0.749 | 0.665 | 0.549
NCI-H2405 | 0.364 | 0.417 | 0.378 | 0.412 | 0.398 | 0.758 | 0.748 | 0.686 | 0.536 | 0.236 | 0.646 | 0.651 | 0.685 | 0.782 | 0.86 | 0.741 | 0.632 | 0.636
